For 26 compounds, IC50, Cmax and AUC(0-t) results are on record in patent US9034850B2, “Gonadotropin releasing hormone receptor antagonist, preparation method thereof and pharmaceutical composition comprising the same” (SK Chemicals Co., Ltd., priority 2009, dated 2015).

Each structure is given as a SMILES string. A value given as a limit tells only on which side of the number the result lay.

For one data set, the target named is T1, GnRH receptor (Homo sapiens, UniProt P30968).
T1 sequence (P30968 1-328): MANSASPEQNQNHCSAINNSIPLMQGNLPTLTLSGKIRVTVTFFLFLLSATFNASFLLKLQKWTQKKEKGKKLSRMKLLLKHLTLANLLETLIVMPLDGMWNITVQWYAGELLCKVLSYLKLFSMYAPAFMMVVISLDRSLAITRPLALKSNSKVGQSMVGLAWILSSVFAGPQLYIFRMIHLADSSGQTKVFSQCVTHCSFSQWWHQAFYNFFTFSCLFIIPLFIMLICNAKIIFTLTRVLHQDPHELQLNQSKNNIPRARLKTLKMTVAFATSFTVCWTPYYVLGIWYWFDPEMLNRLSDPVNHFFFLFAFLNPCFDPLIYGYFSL
The experiment in a line: GnRH-R reporter assay (NFAT promoter luciferase, leuprolide acetate as ligand). It is filed as cell-based.
Details: not given
On the procedure: A double-transformed cell line (HEK293 transformed with pcDNA3.1/GnRH receptor and pGL4/NFAT promoter) was employed. To conduct a GnRH-R reporter assay, the double-transformed cell line was diluted at a density of 3×10^4 cells/well in a medium (DMEM, 10% FBS, 1% Penicillin-Streptomycin), plated into polylysine-coated white-clear bottom 96-well plates and incubated for 24 hrs. After the medium was changed with a serum-free medium (DMEM, 1% Penicillin-Streptomycin), the cells were incubated for an additional 12 hrs before reaction. The cells were incubated for 1 hr with a GnRH antagonist to be tested and then for an additional 6 hrs with a ligand (leuprolide acetate, Sigma), followed by reaction with a Luciferase assay system (Promega, Cat. No. E1500).
Each sample was analyzed at a 6-dose level to obtain the binding inhibitory rates (%) of the competitors on the basis of the measured luminescence. IC50 values were calculated using a nonlinear least square regression method with Prism (GraphPad, Inc.).
For the compound `Cc1c(N2CCN(Cc3cccc(C(F)(F)F)c3)CC2)c(=O)n(C[C@H](NCCCC(=O)O)c2ccccc2)c(=O)n1Cc1c(F)cccc1C(F)(F)F` [Compound 11-2], 9.9 nM corresponded to half-maximal inhibition (IC50).

Staying with this data set, now noted: HEK293 transformed with pcDNA3.1/GnRH receptor and pGL4/NFAT promoter; luciferase; read-out: IC50 Value.
Turning to `Cc1cc(F)cc([C@H](Cn2c(=O)c(N3CCN(Cc4ccc(C(F)(F)F)o4)CC3)c(C)n(Cc3c(F)cccc3C(F)(F)F)c2=O)NCCCC(=O)O)c1` [Compound 11-4], the half-inhibitory concentration (IC50) was 4.9 nM.

Test system in a further data set: not listed separately
The experiment in a line: Assay for oral absorptivity (plasma drug level after oral administration). It is filed as in vivo. The note with it: male, rat, 40 umol/kg; SD rats, oral, plasma. As for the experimental part: 1) Preparation of Specimen for Measuring Drug Level upon Oral Administration
For use as experimental animals, SD rats (Charles River Japan, male, 8 weeks old, 220-270 g) was starved overnight. Test compounds (25˜30 mg) were dissolved in polyethyleneglycol 400 (PEG400) 20%, and a 0.5% carboxy methyl cellulose (CMC) solution 80% to produce solutions of 4 μmmol/mL. The rats were weighed. The test compounds were orally administered at a dose of 40 μmol/kg (ca. 25˜30 mg/kg) to the rats using a sonde and a 3 mL syringe. Blood samples were taken 20, 40, 60, 120, 240, and 360 min after the oral administration. Plasmas separated from the blood samples by centrifugation were used as specimens.
2) Measurement of Drug Level
0.09 mL of methanol was added to 0.03 mL of the plasma obtained in 1), followed by vortexing to precipitate and remove proteins. 0.005 mL of the supernatant was injected to LC/MS/MS.
Apparatus: Shiseido Nanospace SI-2
Column: Shiseido capcelpack C18, MG3, 5 um, 2.0 mm I.D×50 mm
Mobile Phase: a mixture of 3:7 10 mM ammonium formate (pH 4.0): acetonitrile.
`Cc1cc(F)cc([C@H](Cn2c(=O)c(N3CCN(Cc4ccc(C(F)(F)F)o4)CC3)c(C)n(Cc3c(F)cccc3C(F)(F)F)c2=O)NCCCC(=O)O)c1` [Compound 11-4]: the peak level (Cmax) was 4140 ng/mL.
The same measure, in the same setting: as for `Cc1c(N2CCN(Cc3cccc(C(F)(F)F)c3)CC2)c(=O)n(C[C@H](NCCCC(=O)O)c2ccccc2)c(=O)n1Cc1c(F)cccc1C(F)(F)F` [Compound 11-2], the figure is 5100 ng/mL.

The same data set, now with this note: male, rat, 40 μmol/kg; plasma drug level after oral administration, SD rats; read-out: AUC8 hr.
Turning to `Cc1cc(F)cc([C@H](Cn2c(=O)c(N3CCN(Cc4ccc(C(F)(F)F)o4)CC3)c(C)n(Cc3c(F)cccc3C(F)(F)F)c2=O)NCCCC(=O)O)c1` [Compound 11-4], the AUC(0-t) is 19600 ng·h/mL.
Regarding `Cc1c(N2CCN(Cc3cccc(C(F)(F)F)c3)CC2)c(=O)n(C[C@H](NCCCC(=O)O)c2ccccc2)c(=O)n1Cc1c(F)cccc1C(F)(F)F` [Compound 11-2], the AUC(0-t) was determined as 29400 ng·h/mL.

The target of another data set is T1, GnRH receptor. The experiment in a line: GnRH receptor membrane binding assay ([125I]-D-Trp6-LHRH competition). The arrangement: purchased Perkin Elmer; host or cells: CHO-K1 (stably transfected), membrane preparation.
Details: not given
As for the experimental part:
A membrane Target system (Perkin Elmer), isolated from CHO-K1 cells stably transfected with a GnRH receptor, was employed. […] After incubation at 27° C. for 1 hr, the reaction mix was transferred to a filter (Fitermat A, PerkinElmer) using a vacuum pump and the reaction was terminated by washing many times with 50 mM tris-HCl buffer. The radioactivity on the filter was measured using Microbeta2 trilux (PerkinElmer). The competitors were analyzed for binding inhibition rate (%) on the basis of the measured radioactivity and calculated for IC50 values using a nonlinear least square regression method with Prism (GraphPad, Inc.).
For the compound `Cc1c(N2CCN(Cc3cccc(C(F)(F)F)c3)CC2)c(=O)n(C[C@H](N)c2ccccc2)c(=O)n1Cc1c(F)cccc1F` [Compound 3-47], the concentration for half-maximal inhibition (IC50) is below 100 nM.
The compound `Cc1c(N2CCCC(C)C2)c(=O)n(C[C@H](N)c2ccccc2)c(=O)n1Cc1c(F)cccc1F` (stereo partly drawn) [Compound 1-18] displayed an IC50 below 100 nM.
Same read-out and setting: as for `Cc1c(N2CCN(Cc3cccc(C(F)(F)F)c3F)CC2)c(=O)n(C[C@H](N)c2ccccc2)c(=O)n1Cc1c(F)cccc1F` [Compound 3-50], the figure is below 100 nM.
As to `Cc1c(N2CCN(Cc3cccc(OC(F)(F)F)c3)CC2)c(=O)n(C[C@H](N)c2ccccc2)c(=O)n1Cc1c(F)cccc1F` [Compound 3-1], the half-inhibitory concentration (IC50) is below 100 nM.
The same measure, in the same setting: as for `Cc1c(N2CCN(Cc3ccc(O)cc3)CC2)c(=O)n(C[C@H](N)c2ccccc2)c(=O)n1Cc1c(F)cccc1F` [Compound 3-31], the figure is below 100 nM.

Still in this data set, the particulars now being: membrane from CHO-K1 cells stably transfected with GnRH receptor; 0.2 nM [125I]-D-Trp6-LHRH; Table 26 lists compounds with IC50 of less than 100 nM; read-out: IC50 as measured by the GnRH receptor membrane binding assay.
For the compound `Cc1c(N2CCN(Cc3ccc(OC(F)(F)F)cc3)CC2)c(=O)n(C[C@H](N)c2ccccc2)c(=O)n1Cc1c(F)cccc1F` [Compound 3-49], the IC50 was below 100 nM.
For `Cc1c(N2CCN(Cc3ccc(F)c(C(F)(F)F)c3)CC2)c(=O)n(C[C@H](N)c2ccccc2)c(=O)n1Cc1c(F)cccc1F` [Compound 3-52], the 50% inhibitory concentration (IC50) was below 100 nM.
Same read-out and setting: for `Cc1c(N2CCN(Cc3ccc(C(F)(F)F)o3)CC2)c(=O)n(C[C@H](O)c2ccccc2)c(=O)n1Cc1c(F)cccc1C(F)(F)F` [Compound 20, 1-(2-fluoro-6-trifluoromethyl-benzyl)-3-((R)-2-hydroxy-2-phenyl-ethyl)-6-methyl-5-[4-(5-trifluoromethyl-furan-2-ylmethyl)-piperazin-1-yl]-1H-pyrimidine-2,4-dione] the value was below 100 nM.
On the same count and under the same terms, for `Cc1cccc(CN2CCN(c3c(C)n(Cc4c(F)cccc4F)c(=O)n(C[C@H](N)c4ccccc4)c3=O)CC2)c1O` [Compound 4-9] the value was below 100 nM; for `CSc1ccc(CN2CCN(c3c(C)n(Cc4c(F)cccc4F)c(=O)n(C[C@H](N)c4ccccc4)c3=O)CC2)cc1` [Compound 3-29], below 100 nM; for `Cc1c(N2CCN(Cc3ccc(C(F)(F)F)o3)C(CO)C2)c(=O)n(C[C@H](N)c2ccccc2)c(=O)n1Cc1c(F)cccc1C(F)(F)F` (stereo partly drawn) [Compound 22, 3-((R)-2-amino-2-phenyl-ethyl)-1-(2-fluoro-6-trifluoromethyl-benzyl)-5-[3-hydroxymethyl-4-(5-trifluoromethyl-furan-2-ylmethyl)-piperazin-1-yl]-6-methyl-1H-pyrimidine-2,4-dione], below 100 nM.
With `Cc1c(N2CCN(Cc3ccc4c(c3)OCO4)CC2)c(=O)n(C[C@H](N)c2ccccc2)c(=O)n1Cc1c(F)cccc1F` [Compound 1-13], the IC50 is below 100 nM.
The same measure, in the same setting: for `Cc1cc(C)c(CN2CCN(c3c(C)n(Cc4c(F)cccc4F)c(=O)n(C[C@H](N)c4ccccc4)c3=O)CC2)c(C)c1` [Compound 3-32] the value was below 100 nM; for `Cc1ccc(CN2CCN(c3c(C)n(Cc4c(F)cccc4F)c(=O)n(C[C@H](N)c4ccccc4)c3=O)CC2)c(C)c1` [Compound 4-4], below 100 nM.
As for `CCOP(=O)(O)CCCN[C@@H](Cn1c(=O)c(N2CCN(Cc3ccc(C(F)(F)F)o3)CC2)c(C)n(Cc2c(F)cccc2C(F)(F)F)c1=O)c1ccccc1` [Compound 11-10], the concentration for half-maximal inhibition (IC50) was below 100 nM.
`N[C@@H](Cn1c(=O)c(N2CCN(Cc3cccc(-c4nnn[nH]4)c3)CC2)cn(Cc2c(F)cccc2C(F)(F)F)c1=O)c1ccccc1` [Compound 18, 3-((R)-2-amino-2-phenyl-ethyl)-1-(2-fluoro-6-trifluoromethyl-benzyl)-5-{4-[3-(1H-tetrazol-5-yl)-benzyl]-piperazin-1-yl}-1H-pyrimidine-2,4-dione]: the half-maximal inhibitory concentration (IC50) is below 100 nM.
Still for that read-out and setting: for `Cc1c(N2CCC(Cc3ccccc3)CC2)c(=O)n(C[C@H](N)c2ccccc2)c(=O)n1Cc1c(F)cccc1F` [Compound 1-26] the value was below 100 nM.
On the same count and under the same terms, as for `COC(=O)CNC(=O)c1cccc(CN2CCN(c3c(C)n(Cc4c(F)cccc4C(F)(F)F)c(=O)n(C[C@H](N)c4ccccc4)c3=O)CC2)c1` [Compound 10-1], the figure is below 100 nM; as for `Cc1c(N2CCN(Cc3cccnc3)CC2)c(=O)n(C[C@H](N)c2ccccc2)c(=O)n1Cc1c(F)cccc1F` [Compound 3-7], below 100 nM.
For `CCOC(=O)CCNC(=O)c1cccc(CN2CCN(c3c(C)n(Cc4c(F)cccc4C(F)(F)F)c(=O)n(C[C@H](N)c4ccccc4)c3=O)CC2)c1` [Compound 10-2], the half-inhibitory concentration (IC50) was below 100 nM.
With `Cc1c(N2CCC(C)CC2)c(=O)n(C[C@H](N)c2ccccc2)c(=O)n1Cc1c(F)cccc1F` [Compound 1-16], the 50% inhibitory concentration (IC50) was below 100 nM.
Regarding `Cc1c(N2CCN(Cc3ccc(C(F)(F)F)o3)CC2)c(=O)n(C[C@H](NCCC(O)C(=O)O)c2ccccc2)c(=O)n1Cc1c(F)cccc1C(F)(F)F` (stereo partly drawn) [Compound 21, 4-((R)-2-{3-(2-fluoro-6-trifluoromethyl-benzyl)-4-methyl-2,6-dioxo-5-[4-(5-trifluoromethyl-furan-2-ylmethyl)-piperazin-1-yl]-3,6-dihydro-2H-pyrimidin-1-yl}-1-phenyl-ethylamino)-2-hydroxy-butyric acid], the IC50 was below 100 nM.
Still for that read-out and setting: for `Cc1cccc(C)c1CN1CCN(c2c(C)n(Cc3c(F)cccc3F)c(=O)n(C[C@H](N)c3ccccc3)c2=O)CC1` [Compound 4-6] the value was below 100 nM; for `Cc1c(N2CCN(Cc3ccc(C(F)(F)F)o3)CC2)c(=O)n(C[C@H](NCCCCC(=O)O)c2ccccc2)c(=O)n1Cc1c(F)cccc1C(F)(F)F` [Compound 11-8], below 100 nM.
